In publication PMC10253591, “A Non-Systemic Phosphodiesterase-5 Inhibitor Suppresses Colon Proliferation in Mice” (International Journal of Molecular Sciences, 2023):

Key:
human PDE5a = molecular target: T1, human PDE5a (Homo sapiens, UniProt O76074); assay: In vitro assay for PDE5 inhibitory activity (commercial kit); assay type: biochemical; details: mean of n = 3
T1 construct: purchased BPS Bioscience

[1] = system: LS-174T colon cancer cells; assay: Cell-based permeability assay: cellular cGMP (ELISA) in linaclotide-treated cells; details: LS-174T cells; for EC50: Homo sapiens, LS174T, 1 µM linaclotide, 4 h, cGMP ELISA, read-out: EC50 for increasing cellular cGMP levels
Method: The cell-based permeability assays were performed using LS-174T colon cancer cells obtained from the American Type Culture Collection. Cells were treated with 1 µM linaclotide together with different PDE5i concentrations for 4 h, followed by processing of cell extracts for cellular cGMP measurement using cGMP ELISA kits according to the manufacturer instructions (Cayman Chemical, Ann Arbor, MI, USA). The calculated EC50 values are the concentration of compound required to increase cellular cGMP levels by 50% of maximum based on predictions determined by curve fitting in GraphPad Prism 9 (San Diego, CA, USA). To assess activation of cGMP signaling by immunoblotting, we used LS174T cells with inducible PKG2 expression that were described recently.

mice [2] = assay: Tolerability and plasma level with compound in drinking water for up to 8 days; assay type: in vivo
colon epithelium = assay: Cell proliferation in the colon epithelium (Ki67 flow cytometry, PCNA IHC); assay type: in vivo; details: mice, 9 mg/kg in drinking water; for Ki67+ cells, median: 8 days, proximal colon epithelium, flow cytometry, control 23%; for reduction of number of PCNA+ cells/crypt: distal colon, IHC
Description: Mice were weighed daily, and after at least 5 days of continuous consumption they were sacrificed, and the colon was dissected and processed for quantitation of proliferation by flow cytometry (proximal region) and by IHC (distal region). For flow cytometry, the epithelium was enriched by isolating crypts as described previously, followed by ethanol fixation and staining with phycoerythrin-conjugated anti-mouse Ki-67 antibodies according to the manufacturer instructions (Biolegend, San Diego, CA, USA). Flow cytometry was carried out using a BD Accuri C6 flow cytometer, and data were analyzed using FCS Express 7 software (De Novo Software, Pasadena, CA, USA). Processing the distal colon tissues for histology and immunohistochemistry was carried out as previously described. Briefly, tissues were fixed with 10% formaldehyde, embedded in paraffin blocks, and sectioned by the Augusta University histology core. The tissues were probed using antibodies to PCNA (1:100; Cell Signaling, Danvers, MA, USA). Visualization of PCNA antibodies was carried out using the ImmunoCruz ABC kit (Santa Cruz Biotechnology, Dallas, TX, USA). At least 10 different regions of the colon containing approximately 8 crypts per region were counted for each mouse.

[3] = LC-MS/MS measurement of compound in plasma and feces after oral gavage; details: mice; for level in feces: feces collected between 2–4 h
mice [4] = assay: Arterial blood pressure by telemetry, interaction with isosorbide mononitrate; assay type: in vivo; details: ISMN 300 mg/kg i.p. alone (oral vehicle), baseline around 100 mmHg
Method: Male C57BL/6J mice (n = 4) were implanted with a PA-C10 blood pressure transmitter in the right carotid artery (Data Sciences International, St. Paul, MN, USA), and after recovery from surgery, the data was recorded using the DSI PhysioTel system (Data Sciences International, St. Paul, MN, USA). For each experiment, the mice were randomly selected for treatment with ISMN mixed in diH20, and 0.1 mL was injected i.p. for a final dose of 300 mg/kg. […] The experiment was repeated until each treatment had been reproduced in 5 independent biological trials after which mice were euthanized.
The surgical procedures and implantable telemetry approach for measuring blood pressure in mice have been described in detail previously. In brief, all surgical instruments were autoclaved on a stainless-steel tray that was used as the sterile surface during surgery. The mouse is anesthetized in an isoflurane-inducing chamber. Anesthesia used a fitted nose cone connected to an isoflurane system running 2% in a stream of 100% oxygen mixed with room air. The incision area was shaved and prepped with betadine and rinsed with 70% ethanol. Anesthesia was assessed continuously during shaving and prepping for surgery, with appropriate adjustments. An approximately 10 mm incision was made in the ventral neck region over the trachea to expose the […]. […]

[5] = Tolerability and plasma level with compound in drinking water for up to 8 days; assay type: in vivo; details: male, mouse, plasma, oral, 9 mg/kg daily; mice, in drinking water for 8 days
[6] = both, mouse, in vivo, po
in vivo = details: both, mouse, po
[7] = 9 mg/kg in drinking water, up to 8 days

IC50 (human PDE5a)	EC50 [1]	fold less potent than parent compound at increasing cGMP levels, based upon EC50 ([1]; versus sildenafil)	level in feces ([3]; oral 9 mg/kg)	level in feces ([3]; oral 36 mg/kg)	level in plasma ([3]; oral, doses up to 36 mg/kg, 1 h after administration)	excretion in feces ([3]; single oral 9 mg/kg, 8 h after administration)	level in plasma at other times of time course ([3]; single oral 9 mg/kg, any time other than 1 h during 24 h)	plasma peak in time course ([3]; single oral 9 mg/kg, at 1 h)	time of peak in plasma [6]	concentration at 1 h (in vivo; 9 mg/kg)	concentration at 1 h (in vivo; 36 mg/kg)	SMILES	body weight compared to sildenafil or water alone (mice [2]; [7])	observed deleterious effects (mice [2]; [7])	histological analysis of the colon mucosa (mice [2]; 8 days in drinking water, H&E)	level in plasma (mice [2]; in drinking water for 8 days)	Ki67+ cells, median (colon epithelium)	reduction of number of PCNA+ cells/crypt (colon epithelium)	arterial blood pressure after drug (mice [4])	concentration at 8 days [5]
6.5 nM	12100 nM	18 fold	90 µg/g	244 µg/g	did not result in detectable levels	continued to be excreted at high levels	not detected	11 nM				CCCc1nn(C)c2c(=O)[nH]c(-c3cc(S(=O)(=O)N4CCN(C(=O)CC(=O)O)CC4)ccc3OCC)nc12 [malonyl-sildenafil]	no difference	no observed deleterious effects	no obvious epithelial damage, edema or leukocyte infiltration	not detected	7%	about 30%		
												O=[N+]([O-])O[C@@H]1CO[C@H]2[C@@H]1OC[C@@H]2O [ISMN, isosorbide mononitrate]							126 mmHg	
	670 nM								1 to 2 h	250 nM	3500 nM	CCCc1nn(C)c2c(=O)[nH]c(-c3cc(S(=O)(=O)N4CCN(C)CC4)ccc3OCC)nc12 [sildenafil, reference compound]					11%	about 30%		3.3 nM
